Assay results as given in patent publication US9051345B2, “Metalloinsertor complexes targeted to DNA mismatches” (CALIFORNIA INSTITUTE OF TECHNOLOGY, priority 2011, dated 2015).
Peptide text beside a SMILES is read from it. * marks the point of attachment. Cbz = O=C(OCc1ccccc1)*; CH2F = FC*

Assays:
HCT116O cells [1] = assay: MTT cytotoxicity assay; format: cell-based, human; conditions: for effect of PARP inhibitor on the selective MMR-dependent effects of the rhodium compound: with 20 μM [Rh(HDPA)2chrysi]^3+, HCT116N versus HCT116O
Procedure: Cytotoxicity assays were performed as described in Mosmann, 1983, J. Immunol. Methods, 65, 55-63, the entire contents of which is incorporated herein by reference. HCT116N and HCT116O cells were plated in 96-well plates at 50,000 cells/well and incubated with rhodium for the durations specified. After incubation with the indicated rhodium complexes, cells were labeled with MTT for 4 hours at 37° C. under 5% CO2 and humidified atmosphere. The resulting formazan crystals were dissolved with solubilizing reagent purchased from Roche according to the manufacturer's instructions. The dissolved formazan was quantified as the absorbance at 570 nm minus the background absorbance at 690 nm. Percent viability was determined as the ratio of the amount of formazan in the treated cells to that of the untreated cells.
In order to elucidate the mechanism of action for the cytotoxicity caused by a metalloinsertor complex of Formula I, the MTT cytotoxicity assay was repeated in the absence and presence of the pan-caspase inhibitor Z-VAD-FMK. This inhibitor works by irreversibly binding to the active site of caspases which participate in the apoptotic pathway. […] The HCT116N and HCT116O cell lines were treated with 0-30 μM of the [Rh(HDPA)2chrysi]^3+ complex for 24-72 hours. […]
In order to determine the mechanism of action for cytotoxicity caused by a metalloinsertor complex of Formula I, the MTT cytotoxicity assay was repeated in conjunction with a panel of poly-ADP ribose polymerase (PARP) inhibitors: DPQ, 3-AB, 4-AN, and ABT-888, as described in Costantino et al., 2001, J. Med. Chem., 44, 3786-3794; Purnell et al., 1980, Biochem. J. 185, 775-777; Banasik et al., 1992, J. Biol. Chem. 267, 1569-1575; and Donawho et al., 2007, Clin. Cancer Res., 13, 2728-2737, the entire contents of all of which are incorporated herein by reference. The HCT116N and HCT116O cell lines were treated with 0 or 20 μM of the [Rh(HDPA)2chrysi]^3+ complex for 72 hours, with or without one of the four inhibitors. The inhibitor 3,4-Dihydro-5[4-(1-piperindinyl)butoxy]-1(2H)-isoquinoline (DPQ) was added to a final concentration of 0, 25, or 50 μM; the inhibitor 3-aminobenzamide (3-AB) was added to a final concentration of 0, 2, or 3 mM; the inhibitor 4-amino-1,8-napthalimide (4-AN) was added to a final concentration of 0, 10, or 20 μM; and the inhibitor 2-((R)-2-Methylpyrrolidin-2-yl)-1H-benzimidazole-4-carboxamide (ABT-888) was added to a final concentration of 0, 5, or 10 μM. […] For example, in the case of the compound DPQ, this difference was 43±2.7% without inhibitor and 0.6±3.0% with inhibitor.

HCT116O cells [2] = assay: ICP-MS assay, nuclear and mitochondrial rhodium accumulation; format: cell-based, human; conditions: 10 uM, 24 h, comparison in words
Procedure: To assay the subcellular localization of the rhodium complexes, an inductively coupled plasma mass spectrometry (ICP-MS) assay was used to quantify the uptake of the complexes in both whole cell extracts and nuclear and mitochondrial fractions.
Mitochondrial Rhodium Accumulation. With reference to FIG. 31B, HCT116O cells were plated in 75 cm^2 culture flasks at 2.0×10^7 cells/plate and incubated at 37° C., 5% CO2 for 24 h. Rhodium was added to 10 uM and cells were grown for an additional 24 h. The cells were then harvested by trypsinization and centrifuged for 5 min at 1,200 rpm. The supernatants were decanted, and the cell pellets were resuspended in 1 ml cold PBS (pH 7.2). The cells were centrifuged again for 5 min at 1,200 rpm. The supernatants were discarded, and the resultant pellets were resuspended in 0.5 ml mitochondrial extraction buffer (200 mM mannitol, 68 mM sucrose, 50 mM Pipes, 50 mM KCl, 5 mM EGTA, 2 mM MgCl2; 1 mM DTT and protease inhibitors were added right before use). The samples were incubated on ice for 20 min, and the suspensions were homogenized via passage through a needle and syringe (35×). The homogenized cells were then centrifuged for 5 min at 750 rpm. The supernatants were collected and spun again at 14,000 g for 10 min. The supernatants were decanted, and the resulting mitochondrial pellet was suspended in 0.8 ml H2O via probe sonication. […]

HCT116O cells [3] = conditions: HCT116N and HCT116O; called known; cited from earlier work

Molecule | selective cytotoxicity, MMR-deficient HCT116O versus MMR-proficient HCT116N cells (HCT116O cells [1]) | effect of PARP inhibitor on the selective MMR-dependent effects of the rhodium compound (HCT116O cells [1]; MTT, 72 hours) | other results
[Rh(DPAE)2chrysi]^3+ | increased cytotoxicity to the MMR-deficient HCT116O cells | – | incubation time at which cell selective activity is exhibited (HCT116O cells [1]; HCT116O versus HCT116N): ≤ 6 h; share of cellular rhodium complex that is nuclear (HCT116O cells [2]): greater percentage
[Rh(bpy)2chrysi]^3+ | – | – | cytotoxicity (known property) (HCT116O cells [3]): non-toxic
[Rh(PrDPA)2chrysi]^3+ | – | – | selectivity of inhibitory effects after 72 hours (HCT116O cells [1]; MTT, HCT116N and HCT116O, 72 hours): non-selective inhibitory effects; mitochondrial rhodium content (HCT116O cells [2]): greater than that of cells incubated with [Rh(DPAE)2(chrysi)]^3+
C[C@]1(c2nc3c(C(N)=O)cccc3[nH]2)CCCN1 [ABT-888, 2-((R)-2-Methylpyrrolidin-2-yl)-1H-benzimidazole-4-carboxamide, reference compound] | – | completely abolished the selective MMR-dependent effects | –
[Rh(chrysi)(phen)(PPE)]^2+ | selective cytotoxicities towards the MMR-deficient HCT116O cells | – | –
[Rh(NH3)4phzi]Cl3 [[Rh(NH3)4phzi]^3+] | selective cytotoxicities towards the MMR-deficient HCT116O cells | – | –
COC(=O)C[C@H](NC(=O)[C@H](C)NC(=O)[C@@H](NC(=O)OCc1ccccc1)C(C)C)C(=O)CF [Z-VAD-FMK, reference compound] (Cbz-Val-Ala-Asp(OMe)-CH2F) | – | – | protection from rhodium by the caspase inhibitor at 20 M (so in the source) (HCT116O cells [1]; MTT, HCT116N and HCT116O, with [Rh(HDPA)2chrysi]^3+): no protection from rhodium; protection from rhodium by the caspase inhibitor at 40 μM (HCT116O cells [1]; MTT, HCT116O, with [Rh(HDPA)2chrysi]^3+): some protection from rhodium
O=C1NCCc2c(OCCCCN3CCCCC3)cccc21 [DPQ, 3,4-Dihydro-5[4-(1-piperindinyl)butoxy]-1(2H)-isoquinoline, reference compound] | – | completely abolished the selective MMR-dependent effects | –
NC(=O)c1cccc(N)c1 [3-AB, 3-aminobenzamide, reference compound] | – | completely abolished the selective MMR-dependent effects | –
Nc1ccc2c3c(cccc13)C(=O)NC2=O [4-AN, 4-amino-1,8-napthalimide, reference compound] | – | completely abolished the selective MMR-dependent effects | –
[Rh(MeDPA)2chrysi]Cl3 [[Rh(MeDPA)2chrysi]^3+] | differential toxicity against the HCT116O cell line comparable to that of [Rh(HDPA)2chrysi]^3+ | – | toxicity in MMR-deficient HCT116O versus HCT116N cells at 48 hours (HCT116O cells [1]; MTT, 48 hours): enhance toxicity in the MMR-deficient HCT116O cells
[Rh(chrysi)(phen)(PyPrO)]^2+ | selective cytotoxicities towards the MMR-deficient HCT116O cells | – | –
[Rh(chrysi)(phen)(DPE)]Cl3 [[Rh(chrysi)(phen)(DPE)]^2+] | selective cytotoxicities towards the MMR-deficient HCT116O cells | – | –
